{
  "source": "ChEMBL document CHEMBL4229379",
  "about": "“Synthesis and structure-activity relationship of novel bisindole amidines active against MDR Gram-positive and Gram-negative bacteria” (Eur J Med Chem, 2018)",
  "key": {"Klebsiella pneumoniae [1]": {"test_system": "Klebsiella pneumoniae", "assay": "Antibacterial activity against extended-spectrum beta-lactamase harboring Klebsiella pneumoniae 12-8 after 18 hrs by CLSI broth microdilution method", "format": "functional", "settings": "12-8, 18 h"}, "Citrobacter freundii": {"test_system": "Citrobacter freundii", "assay": "Antibacterial activity against Citrobacter freundii ATCC 43864 after 18 hrs by CLSI broth microdilution method", "format": "functional", "settings": "ATCC 43864, 18 h"}, "Enterococcus faecium [2]": {"test_system": "Enterococcus faecium", "assay": "Antibacterial activity against vancomycin-resistant Enterococcus faecium 12-1 after 18 hrs by CLSI broth microdilution method", "format": "functional", "settings": "12-1, 18 h"}, "Enterococcus faecalis [3]": {"test_system": "Enterococcus faecalis", "assay": "Antibacterial activity against vancomycin-sensitive Enterococcus faecalis 12-5 after 18 hrs by CLSI broth microdilution method", "format": "functional", "settings": "12-5, 18 h"}, "Staphylococcus aureus [4]": {"test_system": "Staphylococcus aureus", "assay": "Antibacterial activity against methicillin-resistant Staphylococcus aureus 12-33 after 18 hrs by CLSI broth microdilution method", "format": "functional", "settings": "12-33, 18 h"}, "Staphylococcus aureus [5]": {"test_system": "Staphylococcus aureus", "assay": "Antibacterial activity against methicillin-resistant Staphylococcus aureus ATCC 33591 after 18 hrs by CLSI broth microdilution method", "format": "functional", "settings": "ATCC 33591, 18 h"}, "Pseudomonas aeruginosa [6]": {"test_system": "Pseudomonas aeruginosa", "assay": "Antibacterial activity against Pseudomonas aeruginosa 12-16 after 18 hrs by CLSI broth microdilution method", "format": "functional", "settings": "12-16, 18 h"}, "Escherichia coli [7]": {"test_system": "Escherichia coli", "assay": "Antibacterial activity against extended-spectrum beta-lactamase deficient Escherichia coli 1515 after 18 hrs by CLSI broth microdilution method", "format": "functional", "settings": "Escherichia coli, 1515, 18 h"}, "Staphylococcus aureus [8]": {"test_system": "Staphylococcus aureus", "assay": "Antibacterial activity against methicillin-sensitive Staphylococcus aureus ATCC 29213 after 18 hrs by CLSI broth microdilution method", "format": "functional", "settings": "ATCC 29213, 18 h"}, "Enterococcus faecium [9]": {"test_system": "Enterococcus faecium", "assay": "Antibacterial activity against vancomycin-resistant Enterococcus faecium ATCC 700221 after 18 hrs by CLSI broth microdilution method", "format": "functional", "settings": "ATCC 700221, 18 h"}, "Klebsiella aerogenes": {"test_system": "Klebsiella aerogenes", "assay": "Antibacterial activity against Enterobacter aerogenes ATCC 13048 after 18 hrs by CLSI broth microdilution method", "format": "functional", "settings": "ATCC 13048, 18 h"}, "Escherichia coli [10]": {"test_system": "Escherichia coli", "assay": "Antibacterial activity against extended-spectrum beta-lactamase deficient Escherichia coli ATCC 25922 after 18 hrs by CLSI broth microdilution method", "format": "functional", "settings": "ATCC 25922, 18 h"}, "Enterobacter cloacae": {"test_system": "Enterobacter cloacae", "assay": "Antibacterial activity against Enterobacter cloacae ATCC 43560 after 18 hrs by CLSI broth microdilution method", "format": "functional", "settings": "ATCC 43560, 18 h"}, "Escherichia coli [11]": {"test_system": "Escherichia coli", "assay": "Antibacterial activity against extended-spectrum beta-lactamase deficient Escherichia coli 12-14 after 18 hrs by CLSI broth microdilution method", "format": "functional", "settings": "12-14, 18 h"}, "Providencia rettgeri": {"test_system": "Providencia rettgeri", "assay": "Antibacterial activity against Providencia rettgeri ATCC 31052 after 18 hrs by CLSI broth microdilution method", "format": "functional", "settings": "ATCC 31052, 18 h"}, "[12]": {"test_system": "Staphylococcus epidermidis", "assay": "Antibacterial activity against methicillin-sensitive Staphylococcus epidermidis 12-6 after 18 hrs by CLSI broth microdilution method", "format": "functional", "settings": "12-6, 18 h"}, "[13]": {"test_system": "Staphylococcus epidermidis", "assay": "Antibacterial activity against methicillin-resistant Staphylococcus epidermidis 12-8 after 18 hrs by CLSI broth microdilution method", "format": "functional", "settings": "12-8, 18 h"}, "Proteus vulgaris": {"test_system": "Proteus vulgaris", "assay": "Antibacterial activity against Proteus vulgaris ATCC 29905 after 18 hrs by CLSI broth microdilution method", "format": "functional", "settings": "ATCC 29905, 18 h"}, "Enterococcus faecalis [14]": {"test_system": "Enterococcus faecalis", "assay": "Antibacterial activity against vancomycin-sensitive Enterococcus faecalis ATCC 29212 after 18 hrs by CLSI broth microdilution method", "format": "functional", "settings": "ATCC 29212, 18 h"}, "[15]": {"test_system": "Acinetobacter calcoaceticus", "assay": "Antibacterial activity against Acinetobacter calcoaceticus ATCC 19606 after 18 hrs by CLSI broth microdilution method", "format": "functional", "settings": "ATCC 19606, 18 h"}, "Klebsiella pneumoniae [16]": {"test_system": "Klebsiella pneumoniae", "assay": "Antibacterial activity against new delhi metallo-beta-lactamase-1 harboring Klebsiella pneumoniae ATCC BAA-2146 after 18 hrs by CLSI broth microdilution method", "format": "functional", "settings": "ATCC BAA-2146, 18 h"}, "Escherichia coli [17]": {"test_system": "Escherichia coli", "assay": "Antibacterial activity against extended-spectrum beta-lactamase harboring Escherichia coli 12-15 after 18 hrs by CLSI broth microdilution method", "format": "functional", "settings": "12-15, 18 h"}, "Klebsiella pneumoniae [18]": {"test_system": "Klebsiella pneumoniae", "assay": "Antibacterial activity against extended-spectrum beta-lactamase harboring Klebsiella pneumoniae ATCC 700603 after 18 hrs by CLSI broth microdilution method", "format": "functional", "settings": "Klebsiella pneumoniae, 700603, 18 h"}, "Staphylococcus aureus [19]": {"test_system": "Staphylococcus aureus", "assay": "Antibacterial activity against methicillin-sensitive Staphylococcus aureus 12-28 after 18 hrs by CLSI broth microdilution method", "format": "functional", "settings": "12-28, 18 h"}, "Klebsiella pneumoniae [20]": {"test_system": "Klebsiella pneumoniae", "assay": "Antibacterial activity against extended-spectrum beta-lactamase deficient Klebsiella pneumoniae 7 after 18 hrs by CLSI broth microdilution method", "format": "functional", "settings": "Klebsiella pneumoniae, 7, 18 h"}, "Staphylococcus aureus [21]": {"test_system": "Staphylococcus aureus", "assay": "Antibacterial activity against methicillin-sensitive Staphylococcus aureus 15 after 18 hrs by CLSI broth microdilution method", "format": "functional", "settings": "Staphylococcus aureus, 15, 18 h"}, "Proteus mirabilis": {"test_system": "Proteus mirabilis", "assay": "Antibacterial activity against Proteus mirabilis 12-6 after 18 hrs by CLSI broth microdilution method", "format": "functional", "settings": "12-6, 18 h"}, "Klebsiella pneumoniae [22]": {"test_system": "Klebsiella pneumoniae", "assay": "Antibacterial activity against extended-spectrum beta-lactamase deficient Klebsiella pneumoniae 12-4 after 18 hrs by CLSI broth microdilution method", "format": "functional", "settings": "12-4, 18 h"}, "[23]": {"assay": "Cytotoxicity against HEK293T cells assessed as reduction in cell viability after 48 hrs by MTS assay", "format": "cell-based, HEK-293T", "settings": "human"}, "[24]": {"test_system": "Stenotrophomonas maltophilia", "assay": "Antibacterial activity against Stenotrophomonas maltophilia ATCC 13636 after 18 hrs by CLSI broth microdilution method", "format": "functional", "settings": "ATCC 13636, 18 h"}, "Enterococcus faecium [25]": {"test_system": "Enterococcus faecium", "assay": "Antibacterial activity against vancomycin-sensitive Enterococcus faecium 12-3 after 18 hrs by CLSI broth microdilution method", "format": "functional", "settings": "12-3, 18 h"}, "Pseudomonas aeruginosa [26]": {"test_system": "Pseudomonas aeruginosa", "assay": "Antibacterial activity against Pseudomonas aeruginosa PAO1 after 18 hrs by CLSI broth microdilution method", "format": "functional", "settings": "PAO1, 18 h"}, "Serratia marcescens": {"test_system": "Serratia marcescens", "assay": "Antibacterial activity against Serratia marcescens ATCC 21074 after 18 hrs by CLSI broth microdilution method", "format": "functional", "settings": "ATCC 21074, 18 h"}, "Enterococcus faecalis [27]": {"test_system": "Enterococcus faecalis", "assay": "Antibacterial activity against vancomycin-resistant Enterococcus faecalis 09-9 after 18 hrs by CLSI broth microdilution method", "format": "functional", "settings": "09-9, 18 h"}, "Enterococcus faecalis [28]": {"test_system": "Enterococcus faecalis", "assay": "Antibacterial activity against vancomycin-resistant Enterococcus faecalis ATCC 51299 after 18 hrs by CLSI broth microdilution method", "format": "functional", "settings": "ATCC 51299, 18 h"}, "Pseudomonas aeruginosa [29]": {"test_system": "Pseudomonas aeruginosa", "assay": "Antibacterial activity against Pseudomonas aeruginosa ATCC 27853 after 18 hrs by CLSI broth microdilution method", "format": "functional", "settings": "ATCC 27853, 18 h"}, "[30]": {"test_system": "Staphylococcus epidermidis", "assay": "Antibacterial activity against methicillin-sensitive Staphylococcus epidermidis ATCC 12228 after 18 hrs by CLSI broth microdilution method", "format": "functional", "settings": "ATCC 12228, 18 h"}},
  "data": [
    {"smiles": "CN1CCN(C(=N)c2ccc3cc(-c4ccc(-c5cc6ccc(C(=N)N7CCN(C)CC7)cc6[nH]5)cc4)[nH]c3c2)CC1", "values": [
      {"measurement": "MIC", "setting": "Klebsiella pneumoniae [1]", "result": 16, "unit": "µg/mL"},
      {"measurement": "MIC", "setting": "Citrobacter freundii", "result": 8, "unit": "µg/mL"},
      {"measurement": "MIC", "setting": "Enterococcus faecium [2]", "result": 8, "unit": "µg/mL"},
      {"measurement": "MIC", "setting": "Enterococcus faecalis [3]", "result": 64, "unit": "µg/mL"},
      {"measurement": "MIC", "setting": "Staphylococcus aureus [4]", "result": 1, "unit": "µg/mL"},
      {"measurement": "MIC", "setting": "Staphylococcus aureus [5]", "result": 1, "unit": "µg/mL"},
      {"measurement": "MIC", "setting": "Pseudomonas aeruginosa [6]", "result": "> 128", "unit": "µg/mL"},
      {"measurement": "MIC", "setting": "Escherichia coli [7]", "result": 8, "unit": "µg/mL"},
      {"measurement": "MIC", "setting": "Staphylococcus aureus [8]", "result": 1, "unit": "µg/mL"},
      {"measurement": "MIC", "setting": "Enterococcus faecium [9]", "result": 8, "unit": "µg/mL"},
      {"measurement": "MIC", "setting": "Klebsiella aerogenes", "result": 16, "unit": "µg/mL"},
      {"measurement": "MIC", "setting": "Escherichia coli [10]", "result": 8, "unit": "µg/mL"},
      {"measurement": "MIC", "setting": "Enterobacter cloacae", "result": 8, "unit": "µg/mL"},
      {"measurement": "MIC", "setting": "Escherichia coli [11]", "result": 8, "unit": "µg/mL"},
      {"measurement": "MIC", "setting": "Providencia rettgeri", "result": 8, "unit": "µg/mL"},
      {"measurement": "MIC", "setting": "[12]", "result": 2, "unit": "µg/mL"},
      {"measurement": "MIC", "setting": "[13]", "result": 1, "unit": "µg/mL"},
      {"measurement": "MIC", "setting": "Proteus vulgaris", "result": 16, "unit": "µg/mL"},
      {"measurement": "MIC", "setting": "Enterococcus faecalis [14]", "result": 8, "unit": "µg/mL"},
      {"measurement": "MIC", "setting": "[15]", "result": 128, "unit": "µg/mL"},
      {"measurement": "MIC", "setting": "Klebsiella pneumoniae [16]", "result": 16, "unit": "µg/mL"},
      {"measurement": "MIC", "setting": "Escherichia coli [17]", "result": 8, "unit": "µg/mL"},
      {"measurement": "MIC", "setting": "Klebsiella pneumoniae [18]", "result": 64, "unit": "µg/mL"},
      {"measurement": "MIC", "setting": "Staphylococcus aureus [19]", "result": 1, "unit": "µg/mL"},
      {"measurement": "MIC", "setting": "Klebsiella pneumoniae [20]", "result": 16, "unit": "µg/mL"},
      {"measurement": "MIC", "setting": "Staphylococcus aureus [21]", "result": 1, "unit": "µg/mL"},
      {"measurement": "MIC", "setting": "Proteus mirabilis", "result": "> 128", "unit": "µg/mL"},
      {"measurement": "MIC", "setting": "Klebsiella pneumoniae [22]", "result": 64, "unit": "µg/mL"},
      {"measurement": "CC50 at 48 h", "setting": "[23]", "result": 18.9, "unit": "µg/mL"},
      {"measurement": "MIC", "setting": "[24]", "result": 128, "unit": "µg/mL"},
      {"measurement": "MIC", "setting": "Enterococcus faecium [25]", "result": 8, "unit": "µg/mL"},
      {"measurement": "MIC", "setting": "Pseudomonas aeruginosa [26]", "result": 128, "unit": "µg/mL"},
      {"measurement": "MIC", "setting": "Serratia marcescens", "result": "> 128", "unit": "µg/mL"},
      {"measurement": "MIC", "setting": "Enterococcus faecalis [27]", "result": 8, "unit": "µg/mL"},
      {"measurement": "MIC", "setting": "Enterococcus faecalis [28]", "result": 64, "unit": "µg/mL"},
      {"measurement": "MIC", "setting": "Pseudomonas aeruginosa [29]", "result": 64, "unit": "µg/mL"},
      {"measurement": "MIC", "setting": "[30]", "result": 1, "unit": "µg/mL"}
    ]}
  ]
}
